Experimental data: patent publication US9085555B2, “Complement pathway modulators and uses thereof” (priority 2011, dated 2015)
Where a name gives a salt, the structure may show the parent alone.

Target: Factor D (Homo sapiens (Human), UniProt P00746)
Assay: biochemical
Assay type: biochemical
Conditions: read-out: IC50

Chain of Factor D (P00746 26-253): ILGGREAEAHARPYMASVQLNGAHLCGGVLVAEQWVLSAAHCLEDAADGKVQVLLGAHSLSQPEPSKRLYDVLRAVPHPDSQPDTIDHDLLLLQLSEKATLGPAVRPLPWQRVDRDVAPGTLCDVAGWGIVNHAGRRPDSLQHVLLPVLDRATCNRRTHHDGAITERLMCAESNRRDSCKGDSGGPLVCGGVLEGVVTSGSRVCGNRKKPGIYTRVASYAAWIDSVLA

| Compound | IC50 [nM] |
| --- | --- |
| CC(=O)c1cn(CC(=O)N2C[C@H](F)C[C@H]2C(=O)NCc2cccc(Cl)c2F)c2cc(OC(F)(F)F)ccc12 [Example 509, (2S,4R)-1-[2-(3-Acetyl-6-trifluoromethoxy-indol-1-yl)-acetyl]-4-fluoro-pyrrolidine-2-carboxylic acid 3-chloro-2-fluoro-benzylamide] | 58 |
| NC(=O)n1cc(NC(=O)N2CCS[C@H]2C(=O)Nc2cc(Br)cc(C(=O)O)c2)c2ccccc21 [Example 341, 3-Bromo-5-{[(S)-3-(1-carbamoyl-1H-indol-3-ylcarbamoyl)-thiazolidine-2-carbonyl]-amino}-benzoic acid] | 95 |
| CC(=O)c1cn(CC(=O)N2[C@@H]3C[C@@H]3C[C@H]2C(=O)NCc2cccc(Cl)c2F)c2cc(C(=N)N(C)C)ccc12 [Example 616, (1R,3S,5R)-2-{2-[3-Acetyl-6-(N,N-dimethyl-carbamimidoyl)-indol-1-yl]-acetyl}-2-aza-bicyclo[3.1.0]hexane-3-carboxylic acid 3-chloro-2-fluoro-benzylamide] | 123 |
| CC(=O)c1cn(CC(=O)N2[C@@H]3C[C@@H]3C[C@H]2C(=O)NCc2cccc(Cl)c2F)c2cnccc12 [Example 550, (1R,3S,5R)-2-[2-(3-Acetyl-pyrrolo[2,3-c]pyridin-1-yl)-acetyl]-2-aza-bicyclo[3.1.0]hexane-3-carboxylic acid 3-chloro-2-fluorobenzylamide] | 33 |
| NC(=O)n1cc(NC(=O)N2C[C@@H](N)C[C@H]2C(=O)N[C@@H]2C[C@H]2c2ccccc2)c2ccccc21 [Example 83] | 2250 |
| COC(=O)c1cc(Cl)c(F)c(CNC(=O)[C@@H]2C[C@@H](F)CN2C(=O)Nc2cn(C(N)=O)c3ccccc23)c1 [Example 244, 3-({[(2S,4R)-1-(1-Carbamoyl-1H-indol-3-ylcarbamoyl)-4-fluoro-pyrrolidine-2-carbonyl]-amino}-methyl)-5-chloro-4-fluoro-benzoic acid methyl ester] | 17 |
| NC(=O)c1nn(CC(=O)N2[C@@H]3C[C@@H]3C[C@H]2C(=O)Nc2cccc(C3CC3)c2F)c2ccccc12 [Example 674, 1-{2-[(1R,3S,5R)-3-(3-Cyclopropyl-2-fluoro-phenylcarbamoyl)-2-aza-bicyclo[3.2.1]hex-2-yl]-2-oxo-ethyl}-1H-indazole-3-carboxylic acid amide] | 75 |
| NC(=O)c1cn(CC(=O)N2C[C@H](F)C[C@H]2C(=O)NCc2cccc(Br)c2F)c2ccccc12 [Example 481, 1-{2-[(2S,4R)-2-(3-Bromo-2-fluoro-benzylcarbamoyl)-4-fluoro-pyrrolidin-1-yl]-2-oxo-ethyl}-1H-indole-3-carboxylic acid amide] | 22 |
| N#C[C@@H]1C[C@@H](C(=O)Nc2cccc(OC(F)(F)F)c2)N(C(=O)Nc2cn(C(N)=O)c3ccccc23)C1 [Example 256, (2S,4R)-4-cyano-pyrrolidine-1,2-dicarboxylic acid 1-[(1-carbamoyl-1H-indol-3-yl)-amide]2-[(3-trifluoromethoxy-phenyl)-amide]] | 4000 |
| COC(=O)[C@H](Cc1ccccc1)NC(=O)[C@@H]1C[C@H](N)CN1C(=O)Nc1cn(C(N)=O)c2ccccc12 [Example 97, (S)-2-{[(2S,4S)-4-Amino-1-(1-carbamoyl-1H-indol-3-ylcarbamoyl)-pyrrolidine-2-carbonyl]-amino}-3-phenyl-propionic acid methyl ester] | 900 |
| Cc1nccc2c(C(N)=O)nn(CC(=O)N3[C@@H]4C[C@@H]4C[C@H]3C(=O)N[C@H](C)c3cccc(Cl)c3F)c12 [Example 693, 1-(2-{(1R,3S,5R)-3-[(R)-1-(3-Chloro-2-fluoro-phenyl)-ethylcarbamoyl]-2-aza-bicyclo[3.1.0]hex-2-yl}-2-oxo-ethyl)-7-methyl-1H-pyrazolo[3,4-c]pyridine-3-carboxylic acid amide] | 6 |
| COc1ccc2c(c1)c(NC(=O)N1[C@@H]3C[C@@H]3C[C@H]1C(=O)Nc1cc(Br)cc(C(=O)O)c1)cn2C(N)=O [Example 342, 3-Bromo-5-{[(1R,3S,5R)-2-(1-carbamoyl-5-methoxy-1H-indol-3-ylcarbamoyl)-2-aza-bicyclo[3.1.0]hexane-3-carbonyl]-amino}-benzoic acid] | 55 |
| NC(=O)n1cc(NC(=O)N2C3CC3C[C@H]2C(=O)NCc2cccc(Cl)c2F)c2ccccc21 (stereo partly drawn) [Example 166, (1R,3S,5R)-2-Aza-bicyclo[3.1.0]hexane-2,3-dicarboxylic acid 2-[(1-carbamoyl-1H-indol-3-yl)-amide] 3-(3-chloro-2-fluoro-benzylamide)] | 3 |
| CC(=O)c1cn(CC(=O)N2[C@@H]3C[C@@H]3C[C@H]2C(=O)Nc2cccc(OC(F)(F)F)c2)c2ncccc12 [Example 558, (1R,3S,5R)-2-[2-(3-Acetyl-pyrrolo[2,3-b]pyridin-1-yl)-acetyl]-2-aza-bicyclo[3.1.0] hexane-3-carboxylic acid (3-trifluoromethoxy-phenyl)-amide] | 1990 |
| CC(=O)n1cc(C(N)C(=O)N2C[C@H](F)C[C@H]2C(=O)NCc2cccc(Cl)c2F)c2ccccc21 (stereo partly drawn) [Example 120, (2S,4R)-1-[2-(1-Acetyl-1H-indol-3-yl)-2-amino-acetyl]-4-fluoro-pyrrolidine-2-carboxylic acid 3-chloro-2-fluoro-benzylamide] | 3200 |
| NC(=O)n1cc(NC(=O)N2CCCC[C@H]2C(=O)NCc2cccc(Cl)c2F)c2ccccc21 [Example 220, (S)-Piperidine-1,2-dicarboxylic acid 1-[(1-carbamoyl-1H-indol-3-yl)-amide] 2-(3-chloro-2-fluoro-benzylamide)] | 233 |
| Cc1nccc2c(C(N)=O)nn(CC(=O)N3[C@@H]4C[C@@H]4C[C@H]3C(=O)NCc3cccc(Cl)c3F)c12 [Example 694, 1-{2-[(1R,3S,5R)-3-(3-Chloro-2-fluoro-benzylcarbamoyl)-2-aza-bicyclo[3.1.0]hex-2-yl]-2-oxo-ethyl}-7-methyl-1H-pyrazolo[3,4-c]pyridine-3-carboxylic acid amide] | 17 |
| CC(=O)c1nn(CC(=O)N2C[C@H](F)[C@@H](O)[C@H]2C(=O)NC2(c3cccc(Cl)c3F)CC2)c2cnccc12 [Example 635, (2S,3S,4S)-1-[2-(3-Acetyl-pyrazolo[3,4-c]pyridin-1-yl)-acetyl]-4-fluoro-3-hydroxy-pyrrolidine-2-carboxylic acid [1-(3-chloro-2-fluoro-phenyl)-cyclopropyl]-amide formate] | 18 |
| COc1cnc2c(c1)c(C(C)=O)cn2CC(=O)N1[C@@H]2C[C@@H]2C[C@H]1C(=O)NCc1cccc(Cl)c1F [Example 494, (1R,3S,5R)-2-[2-(3-Acetyl-5-methoxy-pyrrolo[2,3-b]pyridin-1-yl)-acetyl]-2-aza-bicyclo [3.1.0]hexane-3-carboxylic acid 3-chloro-2-fluoro-benzylamide] | 50 |
| NC(=O)n1cc(NC(=O)N2C[C@H](F)C[C@H]2C(=O)NCc2cc(-c3nnn[nH]3)cc(Cl)c2F)c2ccccc21 [Example 346, (2S,4R)-4-Fluoro-pyrrolidine-1,2-dicarboxylic acid 1-[(1-carbamoyl-1H-indol-3-yl)-amide]2-[3-chloro-2-fluoro-5-(1H-tetrazol-5-yl)-benzylamide]] | 69 |
